Test results: US9113629B2, “4-amino-6-(4-substituted-phenyl)-picolinates and 6-amino-2-(4-substituted-phenyl)-pyrimidine-4-carboxylates and their use as herbicides” (DOW AGROSCIENCES LLC, priority 2013, dated 2015)
Like-named read-outs stand apart in the source and are kept apart here.

Legend:
[1] = tested on: Key Grass and Sedge Weeds as well as Grass Crops; experiment: Post-emergent Test II herbicidal activity (Table 6); assay type: in vivo; settings: post-emergence, 336 h; for pest or weed control at 70 g/ha: 70 g ai/ha; for pest or weed control at 140 g/ha: 140 g ai/ha
In short: (§1)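 Plants grown in Metro-Mix 360 (pH 6.0–6.8) in a greenhouse (~15 h photoperiod, 23–29 °C day) to first or second true leaf stage, then sprayed with compound in acetone/DMSO/aqueous crop-oil-surfactant carrier at 187 L/ha by track sprayer. Injury visually scored 0–100% versus untreated plants after 14 d.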

[2] = tested on: Key Broadleaf Weed and Crop Species; experiment: Post-emergent Test II herbicidal activity (Table 5); assay type: in vivo; settings: post-emergence, 336 h, 14 days after application; for pest or weed control at 70 g/ha: application rate 70 g ai/ha; for pest or weed control at 140 g/ha: application rate 140 g ai/ha
In short: as §1

[3] = CYPES: yellow nutsedge (Cyperus esculentus), read-out: Visual Growth Reduction (%) 14 Days After Application, CYPES
[4] = DIGSA: crabgrass (Digitaria sanguinalis), read-out: Visual Growth Reduction (%) 14 Days After Application, DIGSA
[5] = ECHCG: barnyardgrass (Echinochloa crus-galli), read-out: Visual Growth Reduction (%) 14 Days After Application, ECHCG
[6] = ORYSA: rice (Oryza sativa), crop, read-out: Visual Growth Reduction (%) 14 Days After Application, ORYSA
[7] = SETFA: giant foxtail (Setaria faberi), read-out: Visual Growth Reduction (%) 14 Days After Application, SETFA
[8] = SORVU: grain sorghum (Sorghum vulgare), read-out: Visual Growth Reduction (%) 14 Days After Application, SORVU
[9] = TRZSS (wheat, Triticum aestivum), crop, read-out: Visual Growth Reduction (%) 14 Days After Application, TRZSS
[10] = ZEAMX: maize, corn (Zea mays), crop, read-out: Visual Growth Reduction (%) 14 Days After Application, ZEAMX
[11] = ABUTH: velvetleaf (Abutilon theophrasti), read-out: Visual Growth Reduction (%) 14 Days After Application, ABUTH
[12] = AMARE: redroot pigweed (Amaranthus retroflexus), read-out: Visual Growth Reduction (%) 14 Days After Application, AMARE
[13] = BRSNN: oilseed-rape, canola (Brassica napus), read-out: Visual Growth Reduction (%) 14 Days After Application, BRSNN
[14] = CHEAL: lambsquarters (Chenopodium album), read-out: Visual Growth Reduction (%) 14 Days After Application, CHEAL
[15] = EPHHL: wild poinsettia (Euphorbia heterophylla), read-out: Visual Growth Reduction (%) 14 Days After Application, EPHHL
[16] = HELAN: sunflower (Helianthus annuus), read-out: Visual Growth Reduction (%) 14 Days After Application, HELAN
[17] = VIOTR: wild pansy (Viola tricolor), read-out: Visual Growth Reduction (%) 14 Days After Application, VIOTR

Structure (SMILES)	pest or weed control at 70 g/ha [1, 3]	pest or weed control at 140 g/ha [1, 3]	pest or weed control at 70 g/ha [1, 4]	pest or weed control at 140 g/ha [1, 4]	pest or weed control at 70 g/ha [1, 5]	pest or weed control at 140 g/ha [1, 5]	pest or weed control at 70 g/ha [1, 6]	pest or weed control at 140 g/ha [1, 6]	pest or weed control at 70 g/ha [1, 7]	pest or weed control at 140 g/ha [1, 7]	pest or weed control at 70 g/ha [1, 8]	pest or weed control at 140 g/ha [1, 8]	pest or weed control at 70 g/ha [1, 9]	pest or weed control at 140 g/ha [1, 9]	pest or weed control at 70 g/ha [1, 10]	pest or weed control at 140 g/ha [1, 10]	pest or weed control at 70 g/ha [2, 11]	pest or weed control at 140 g/ha [2, 11]	pest or weed control at 140 g/ha [2, 12]	pest or weed control at 70 g/ha [2, 13]	other results
COC(=O)c1nc(-c2ccc(C#N)cc2F)cc(N)c1Cl [Compound 16]	95 to 100%	95 to 100%	60 to 74%	75 to 84%	75 to 84%	95 to 100%	0 to 29%	0 to 29%	45 to 59%	60 to 74%	60 to 74%	60 to 74%	30 to 44%	45 to 59%	85 to 94%	85 to 94%	85 to 94%	95 to 100%	95 to 100%	0 to 29%	pest or weed control at 140 g/ha [2, 13]: 0 to 29%; pest or weed control at 70 g/ha [2, 14]: 95 to 100%; pest or weed control at 140 g/ha [2, 14]: 95 to 100%; pest or weed control at 70 g/ha [2, 15]: 95 to 100%; pest or weed control at 140 g/ha [2, 15]: 95 to 100%; pest or weed control at 70 g/ha [2, 16]: 95 to 100%; pest or weed control at 140 g/ha [2, 16]: 95 to 100%; pest or weed control at 70 g/ha [2, 17]: 30 to 44%; pest or weed control at 140 g/ha [2, 17]: 30 to 44%
N#Cc1ccc(-c2nc(C(=O)O)c(Cl)c(N)c2F)cc1F [Compound 156]	60 to 74%	85 to 94%	60 to 74%	75 to 84%	75 to 84%	85 to 94%	0 to 29%	0 to 29%	85 to 94%	95 to 100%	60 to 74%	60 to 74%	45 to 59%	60 to 74%	75 to 84%	75 to 84%	60 to 74%	75 to 84%	95 to 100%	75 to 84%	pest or weed control at 70 g/ha [2, 12]: 95 to 100%; pest or weed control at 140 g/ha [2, 13]: 85 to 94%; pest or weed control at 70 g/ha [2, 14]: 95 to 100%; pest or weed control at 140 g/ha [2, 14]: 95 to 100%; pest or weed control at 70 g/ha [2, 15]: 85 to 94%; pest or weed control at 140 g/ha [2, 15]: 85 to 94%; pest or weed control at 70 g/ha [2, 16]: 95 to 100%; pest or weed control at 140 g/ha [2, 16]: 95 to 100%; pest or weed control at 70 g/ha [2, 17]: 60 to 74%; pest or weed control at 140 g/ha [2, 17]: 60 to 74%
